Laboratory results published in ChEMBL document CHEMBL3217460, “Interactions of polysulfanes with components of red blood cells” (Medchemcomm, 2011).
The source made the active and inactive calls. The calls are words filed in the database; no cut-off is given here.

How the values were obtained:
Erythrocyte [1] = assay: Hemolytic activity in human RBC assessed as phosphatidylserine exposure on outer leaflet of cell membrane at 50 uM after 20 mins by annexin V-FITC staining-based FACS analysis; format: functional
[2] = biological target: T1, Hemoglobin HbA (Homo sapiens) (UniProt P69905+P68871); assay: Binding affinity to human hemoglobin at 100 to 300 uM by UV-Vis spectrophotometric analysis
T1 sequence (P68871 2-147 partner limits assumed): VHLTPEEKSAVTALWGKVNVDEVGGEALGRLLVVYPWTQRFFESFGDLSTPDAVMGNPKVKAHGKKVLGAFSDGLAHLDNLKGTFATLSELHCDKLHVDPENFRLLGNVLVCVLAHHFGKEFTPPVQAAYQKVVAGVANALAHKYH
T1 sequence (P69905 2-142 limits assumed): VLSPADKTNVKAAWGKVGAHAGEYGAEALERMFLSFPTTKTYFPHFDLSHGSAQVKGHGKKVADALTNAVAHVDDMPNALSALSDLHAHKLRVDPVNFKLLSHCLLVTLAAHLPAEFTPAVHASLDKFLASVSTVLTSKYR

[3] = biological target: T1, Hemoglobin HbA (Homo sapiens); assay: Binding affinity to human hemoglobin by CD spectroscopic analysis
Erythrocyte [4] = assay: Hemolytic activity in human RBC assessed as oxidation of hemoglobin to methemoglobin after 30 mins by UV-Vis spectrophotometric analysis; format: functional, cell-based

SMILES	Activity [2]	Activity [3]	Activity (Erythrocyte [1])	logP at 1000 µM (physchem)	Activity (Erythrocyte [4])
C=CCCCCCCC=C				4.71	
C=CCS			Active		
C=CCSSCC=C	Active	Active	Active	2.72	

More lines, main results first:

Activity [2]	Activity [3]	SMILES	Activity (Erythrocyte [1])	logP at 1000 µM (physchem)	Activity (Erythrocyte [4])
Active	Active	C=CCSCC=C	Active		
Active	Active	C=CCSSSSCC=C	Active		Dose-dependent effect
Active	Active	C=CCSSSCC=C	Active		Dose-dependent effect
